Consider two compounds from US8673882B2, “Inhibitors of autotaxin” (University of Tennessee Research Foundation, priority 2011, dated 2014).

Each structure is given as a SMILES string.

What all share (format): biochemical
One assay concerns the target T1, NPP6 (Homo sapiens, UniProt Q6UWR7).
T1 sequence (Q6UWR7 23-419): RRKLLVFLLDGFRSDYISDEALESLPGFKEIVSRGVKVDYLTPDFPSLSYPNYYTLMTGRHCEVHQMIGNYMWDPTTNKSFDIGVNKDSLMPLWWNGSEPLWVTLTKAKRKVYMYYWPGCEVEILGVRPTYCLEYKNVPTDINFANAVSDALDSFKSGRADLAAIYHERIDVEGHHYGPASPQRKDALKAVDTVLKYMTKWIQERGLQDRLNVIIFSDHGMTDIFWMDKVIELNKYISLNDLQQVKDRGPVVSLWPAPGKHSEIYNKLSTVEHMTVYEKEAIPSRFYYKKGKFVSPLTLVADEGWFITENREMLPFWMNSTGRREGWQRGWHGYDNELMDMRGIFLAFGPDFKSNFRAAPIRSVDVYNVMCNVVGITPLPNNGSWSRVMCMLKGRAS
The experiment in a line: NPP-6 inhibition assay (pNPPC substrate). Conditions: 10 μM compound; 8.3 nM enzyme; 10 μM pNPPC; read-out: NPP6 Activity, % control (10 μM). On the procedure:
(§1) NPP6 and NPP7 are the only NPP isoforms other than ATX that are known to utilize lysophospholipid phosphodiesters as substrates. Therefore, the specificity of the chemical compounds of the invention regarding ATX was addressed by determining the activity of NPP6 and NPP7 in the presence and absence of these analogs.
(§2) Inhibition of NPP6 and NPP7 was evaluated using recombinant, purified proteins, the synthetic substrate para-nitrophenylphosphocholine (pNPPC) and a Synergy II plate reader (BioTek, Winooski, Vt.). The final concentration of each enzyme was 8.3 nM and pNPPC was 10 μM. All analogs were tested at single 10 μM concentrations. Absorbance of liberated para-nitrophenol at 405 nm was determined up to 1 hour (where responses were linear) and was normalized to vehicle control.

In a further assay the target is T2, NPP7 (Homo sapiens, UniProt Q6UWV6).
T2 sequence (Q6UWV6 22-458): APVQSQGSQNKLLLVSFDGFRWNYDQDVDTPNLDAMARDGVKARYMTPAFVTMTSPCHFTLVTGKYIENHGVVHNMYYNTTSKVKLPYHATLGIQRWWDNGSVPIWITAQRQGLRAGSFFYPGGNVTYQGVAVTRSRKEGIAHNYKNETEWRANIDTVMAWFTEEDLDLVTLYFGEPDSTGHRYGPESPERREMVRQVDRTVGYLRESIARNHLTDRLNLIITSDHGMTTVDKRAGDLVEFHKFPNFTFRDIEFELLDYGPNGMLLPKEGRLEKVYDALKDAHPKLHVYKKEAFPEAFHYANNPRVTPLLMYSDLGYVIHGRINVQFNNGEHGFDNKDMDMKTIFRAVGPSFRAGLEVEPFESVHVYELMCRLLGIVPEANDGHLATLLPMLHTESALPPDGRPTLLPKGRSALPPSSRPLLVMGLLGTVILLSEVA
The assay can be described thus: NPP-7 inhibition assay (pNPPC substrate). Conditions: 10 μM compound; 8.3 nM enzyme; 10 μM pNPPC; read-out: NPP7 Activity, % control (10 μM). Here is the method: as §1, §2

Assay [1] concerns the target recombinant, purified human ATX (Homo sapiens, UniProt Q13822). The experiment in a line: Mechanism of autotaxin inhibition (IC50, Ki, Ki′; FS-3 hydrolysis). Conditions: for IC50: 8.3 nM ATX, 1 μM FS-3, 15 μM BSA; for ATX Mechanism of inhibition: FS-3 0.3 μM to 20 μM, inhibitor 0, 0.5× and 2× IC50. On the procedure:
The mechanism of inhibition of ATX was determined using recombinant, purified human ATX and FS-3. Final ATX and FS-3 concentrations were 8.3 nM and 1 μM, respectively and the assay buffer with 15 μM fatty acid tree BSA. To calculate IC50, full dose responses were determined for the test compounds. […] Simultaneous non-linear regression, using, WinNonLin® 6.1 (Pharsight, Mountain View, Calif.) was used to assign the mechanism of inhibition. Ki and Ki′ values (the affinity for free enzyme and enzyme substrate complex, respectively) were determined by calculating the lowest averaged percent residuals for each mechanism derived from curve fitting using the Michealis-Menten equations for competitive, uncompetitive, mixed-mode, and non-competitive inhibition.

The mark [2] stands for this setting: affinity for enzyme substrate complex.

Broadly, the IC50 is the concentration that gives 50% inhibition. One may read the Ki as the equilibrium dissociation constant of an inhibitor or competing ligand from its target. In the case of `CCCCCCCCCCCCCCCc1ccc(CP(=O)(O)O)cc1` [Compound 22, 4-Pentadecylbenzylphosphonic acid], the remaining activity at 10 µM came to 96.5% at NPP6 and 96.7% at NPP7. Moreover, the half-maximal inhibitory concentration (IC50) in assay [1] amounted to 170 nM. Also, the “ATX Mechanism of inhibition” value in assay [1] is on record as “Mixed”. In addition, the results for the Ki in assay [1] (setting [2]) and in assay [1] (affinity for free enzyme) were 280 nM and 270 nM, respectively.

In the case of `CCCCCCCCCCC/C=C/c1ccc2cc(CP(=O)(O)O)ccc2c1` [Compound 30b, (E)-6-Tridec-1-enyl-naphthalen-2-yl-methylphosphonic acid], the remaining activity at 10 µM stood at 104% on NPP6 and 96.5% at NPP7. In assay [1], the half-maximal inhibitory concentration (IC50) is 1400 nM. In assay [1], the “ATX Mechanism of inhibition” value was “MIXED”. Also, the Ki in assay [1] (setting [2]) worked out at 1010 nM; in assay [1] (affinity for free enzyme), 1500 nM.
